Measurements taken from patent US20240010655A1, “DIHYDROIMIDAZO PYRIMIDO PYRIMIDINONE COMPOUND” (priority 2019, published 2024).

Experiments:
advanced solid tumors = conditions: cited from earlier work
Wee1 (h) = Wee1 (h) (Homo sapiens, UniProt P30291); experiment: Wee1(h) kinase activity experiment ([γ-33P]-ATP, filtermat, scintillation counting); assay type: biochemical; conditions: 10 μM ATP, 40 minutes at room temperature; read-out: IC50, inhibitory effect on Wee1 kinase activity
Description: Determination of the Inhibitory Effect of Compounds on Wee1 Kinase Using Wee1(h) Kinase Activity Experiment
Wee1 (h) is incubated with 20 mM Tris/HCl pH 8.5, 0.2 mM EDTA, 500 μM […], 10 mM MgAcetate and 10 μM [γ-^33P]-ATP. Then 50 times the concentration of the testing compound in 100% DMSO was added until the final concentration was 10 μM, then mixed, and diluted to 10 concentrations in successive series according to the ratio of 1:3 and 1:10 respectively (the last concentration was DMSO negative control): 10 μM, 3 μM, 1 μM, 0.3 μM, 0.1 μM, 0.03 μM, 0.01 μM, 0.003 μM, 0.001 μM, 0 μM. The reaction is initiated by the addition of the Mg/ATP mix. After incubation for 40 minutes at room temperature, the reaction is stopped by the addition of phosphoric acid to a concentration of 0.5%. 10 μL of the reaction liquor is then spotted onto a P30 filtermat and washed four times in 0.425% phosphoric acid and once in methanol prior to drying and scintillation counting. Each compound sample is duplicated in duplicate. The negative control was the components except of Wee1 enzyme, and the positive control was the components of adding 30% phosphoric acid to terminate the reaction. Table 1 summarizes the inhibitory effects of compounds on Wee1 kinase activity (IC50).

LoVo cell = experiment: Inhibition of proliferation of LoVo cell, CCK-8 method; assay type: cell-based; conditions: Homo sapiens, 72 h, CCK-8, 3 days, read-out: IC50, inhibitory effect on the proliferation of LoVo cell
Description: Determination of the Inhibitory Effect of Compounds on the Proliferation of LoVo Cell Using CCK-8 Method
(§1) The cells were digested by trypsinase and centrifuged at 800 rpm for 5 minutes, the supernatant was discarded, and the residual was resuspended with fresh medium and counted. The cells were seeded into 96-well cell culture plate with a density of 6000 cells per well and incubated overnight in a 5% C02 incubator at 37° C. The stock solutions of test compounds were serially diluted to 8 concentrations by DMSO at the ratios of 1:3 and 1:10, respectively. The final concentration of compound was: 10 μM, 3.3 μM, 1 μM, 0.33 μM, 0.1 μM, 0.033 μM, 0.01 μM and 0 μM. 5 μL diluent of each concentration was added to 120 μL of medium (25 times diluted) and mixed by shaking. The overnight cell plates were taken and the culture medium was removed, 195 μL of fresh medium was added to each well, and 5 μL of diluted medium containing the corresponding concentration of the test compound was added respectively (the final concentration of DMSO is 1‰), and the culture plate was then placed in a 5% CO2 incubator at 37° C. for 3 days. After removing the original solution, 90 μL of fresh serum-free 1640 medium was added, then 10 μL of CCK-8 reagent was added to each well and continued incubation for 2 hours. The 96-well plates were placed in a multi-function reader to read the absorbance at the wavelength of 450/650 nm. Cell viability (%)=(ODcompound−ODbackground)/(ODDMSO−ODbackground)×100. GraphPad Prism 5.0 was used to analyze the data. The inhibitory activity of compounds on cell proliferation was plotted based on cell viability and the logarithm of compound concentration. The IC50 value was fitted by a sigmoidal dose response curve equation Y=100/(1+10^(Log C−Log IC50)), wherein C was the concentration of compound.
Table 2 summarizes the inhibitory effect data (IC50) of compounds on the proliferation of LoVo cell

NCI-H1299 cell = experiment: Inhibition of proliferation of NCI-H1299 cell, CCK-8 method; assay type: cell-based; conditions: Homo sapiens, NCI-H1299, 72 h; CCK-8, 3 days; read-out: IC50, inhibitory effect on the proliferation of NCI-H1299 cell
Description: Determination of the Inhibitory Effect of Compounds on the Proliferation of NCI-H1299 Cell Using CCK-8 Method
as §1, with “1000” for “6000”, “CO2” for “C02”
Table 3 summarizes the inhibitory effect data (IC50) of compounds on the proliferation of NCI-H1299 cell.

[1] = 176 evaluable patients, AZD1775 alone or in combination with chemotherapy

Chain of Wee1 (h) (P30291 whole entry): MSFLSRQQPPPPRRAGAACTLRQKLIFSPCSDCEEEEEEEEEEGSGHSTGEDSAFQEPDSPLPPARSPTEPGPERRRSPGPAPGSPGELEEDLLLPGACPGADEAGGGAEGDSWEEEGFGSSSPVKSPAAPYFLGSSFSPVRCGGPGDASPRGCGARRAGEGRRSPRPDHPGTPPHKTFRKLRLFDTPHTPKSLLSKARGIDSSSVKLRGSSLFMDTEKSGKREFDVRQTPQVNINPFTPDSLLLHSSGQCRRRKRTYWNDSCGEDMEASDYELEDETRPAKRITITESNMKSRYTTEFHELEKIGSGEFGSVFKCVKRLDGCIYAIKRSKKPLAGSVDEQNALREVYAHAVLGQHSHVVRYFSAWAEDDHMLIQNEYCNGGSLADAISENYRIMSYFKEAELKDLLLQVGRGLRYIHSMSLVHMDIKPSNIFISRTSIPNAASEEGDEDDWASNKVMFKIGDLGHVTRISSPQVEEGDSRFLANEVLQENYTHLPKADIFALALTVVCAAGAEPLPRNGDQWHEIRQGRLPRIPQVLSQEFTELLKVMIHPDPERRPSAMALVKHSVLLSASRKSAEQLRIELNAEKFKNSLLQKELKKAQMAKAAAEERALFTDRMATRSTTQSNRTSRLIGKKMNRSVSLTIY

| IC50 (Wee1 (h)) [nM] | IC50 (LoVo cell) [nM] | IC50 (NCI-H1299 cell) [nM] | SMILES | patients with partial response (advanced solid tumors; [1]) [%] | patients with stable disease as the best response (advanced solid tumors; [1]) [%] | response rate in patients with TP53 mutation (advanced solid tumors; TP53 mutation (n=19)) [%] | response rate in TP53 wild-type patients (advanced solid tumors; TP53 wild-type (n=33)) [%] |
| --- | --- | --- | --- | --- | --- | --- | --- |
|  |  |  | C=CCn1c(=O)c2cnc(Nc3ccc(N4CCN(C)CC4)cc3)nc2n1-c1cccc(C(C)(C)O)n1 [AZD1775] | 10 | 53 | 21 | 12 |
| 37 | 126 | 71 | Cc1cc(Nc2ncc3c(n2)N2CCN=C2N(c2c(Cl)cccc2Cl)C3=O)ccc1N1C[C@@H](C)N[C@@H](C)C1 [Example 1, 6-(2,6-dichlorophenyl)-2-((4-((3S,5R)-3,5-dimethylpiperazin-1-yl)-3-methylphenyl)amino)-8,9-dihydroimidazo[1,2-a]pyrimido[5,4-e]pyrimidin-5(6H)-one] |  |  |  |  |
| 21 | 158 | 123 | [2H]C([2H])([2H])N1[C@H](C)CN(c2ccc(Nc3ncc4c(n3)N3CCN=C3N(c3c(Cl)cccc3Cl)C4=O)cc2C)C[C@@H]1C [Example 2, 6-(2,6-dichlorophenyl)-2-((4-((3S,5R)-3,5-dimethyl-4-(methyl-d3)piperazin-1-yl)-3-methylphenyl)amino)-8,9-dihydroimidazo[1,2-a]pyrimido[5,4-e]pyrimidin-5(6H)-one] |  |  |  |  |
|  | 219 | 382 | C[C@@H]1CN(c2ccc(Nc3ncc4c(n3)N3CCN=C3N(c3c(Cl)cccc3Cl)C4=O)cc2Br)C[C@H](C)N1C [Example 3, 2-((3-bromo-4-((3S,5R)-3,4,5-trimethylpiperazin-1-yl)phenyl)amino)-6-(2,6-dichlorophenyl)-8,9-dihydroimidazo[1,2-a]pyrimido[5,4-e]pyrimidin-5(6H)-one] |  |  |  |  |
|  | 124 | 182 | Cc1cc(Nc2ncc3c(n2)N2CCN=C2N(c2c(Cl)cccc2Cl)C3=O)cc(F)c1N1C[C@@H](C)N(C)[C@@H](C)C1 [Example 5, 6-(2,6-dichlorophenyl)-2-((3-fluoro-5-methyl-4-((3S,5R)-3,4,5-trimethylpiperazin-1-yl)phenyl)amino)-8,9-dihydroimidazo[1,2-a]pyrimido[5,4-e]pyrimidin-5(6H)-one] |  |  |  |  |
| 30 | 163 | 214 | Cc1cc(Nc2ncc3c(n2)N2CCN=C2N(c2c(Cl)cccc2Cl)C3=O)ccc1N1C[C@H](C)N(C)[C@@H](C)C1 [Example 8, 6-(2,6-dichlorophenyl)-2-((3-methyl-4-((3S,5S)-3,4,5-trimethylpiperazin-1-yl)phenyl)amino)-8,9-dihydroimidazo[1,2-a]pyrimido[5,4-e]pyrimidin-5(6H)-one] |  |  |  |  |
| 23 | 533 | 940 | Cc1cc(Nc2ncc3c(n2)N2CCN=C2N(c2c(Cl)cccc2Cl)C3=O)ccc1C1CCNCC1 [Example 9, 6-(2,6-dichlorophenyl)-2-((3-methyl-4-(piperidin-4-yl)phenyl)amino)-8,9-dihydroimidazo[1,2-a]pyrimido[5,4-e]pyrimidin-5(6H)-one] |  |  |  |  |
| 23 | 78 | 79 | Cc1cc(Nc2ncc3c(n2)N2CCN=C2N(c2c(Cl)cccc2Cl)C3=O)ccc1C1CCN(C)CC1 [Example 12, 6-(2,6-dichlorophenyl)-2-((3-methyl-4-(1-methylpiperidin-4-yl)phenyl)amino)-8,9-dihydroimidazo[1,2-a]pyrimido[5,4-e]pyrimidin-5(6H)-one] |  |  |  |  |
| 26 | 73 | 85 | Cc1cc(Nc2ncc3c(n2)N2CCN=C2N(c2c(Cl)cccc2Cl)C3=O)cc(F)c1C1CCN(C)CC1 [Example 13, 6-(2,6-dichlorophenyl)-2-((3-fluoro-5-methyl-4-(1-methylpiperidin-4-yl)phenyl)amino)-8,9-dihydroimidazo[1,2-a]pyrimido[5,4-e]pyrimidin-5(6H)-one] |  |  |  |  |
